Laboratory results published in patent US12539292B2, “BRM targeting compounds and associated methods of use” (Arvinas Operations, Inc., priority 2018, dated 2026).
Like-named read-outs stand apart in the source and are kept apart here.

Target: T1, BRM (Homo sapiens, UniProt P51531)
T1 construct: In-Cell Western Screen of BRM Degradation in SW1573 Cells; endogenous in cells; host or cells: SW1573
Assay: In-cell Western screen of BRM degradation in SW1573 cells (Dmax and DC50)
Format: cell-based
How it was run: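 Overnight compound treatment (18-20 h, final DMSO 0.1%) of SW1573 cells in DMEM with 10% FBS precedes fixation and in-cell Western staining with 800/680 nm dye-labelled secondaries. Plate images give DC50 and maximal degradation.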

[1] = BRM degradation, SW1573 cells, read-out: DC50
[2] = BRM degradation, SW1573 cells, tested at the top concentration of between 0.3 and 10 μM, read-out: Dmax (%) (% degraded)
[3] = BRM degradation, SW1573 cells, Table 2D, read-out: **Dmax (%) (% degraded)
[4] = BRM degradation, SW1573 cells, Table 2D, read-out: *DC50
[5] = BRM degradation, SW1573 cells, read-out: Dmax (% degraded)
[6] = BRM degradation, SW1573 cells, when tested at the top concentration of between 0.3 and 10 μM, read-out: Dmax (%) (% degraded)

T1 sequence (P51531 whole entry): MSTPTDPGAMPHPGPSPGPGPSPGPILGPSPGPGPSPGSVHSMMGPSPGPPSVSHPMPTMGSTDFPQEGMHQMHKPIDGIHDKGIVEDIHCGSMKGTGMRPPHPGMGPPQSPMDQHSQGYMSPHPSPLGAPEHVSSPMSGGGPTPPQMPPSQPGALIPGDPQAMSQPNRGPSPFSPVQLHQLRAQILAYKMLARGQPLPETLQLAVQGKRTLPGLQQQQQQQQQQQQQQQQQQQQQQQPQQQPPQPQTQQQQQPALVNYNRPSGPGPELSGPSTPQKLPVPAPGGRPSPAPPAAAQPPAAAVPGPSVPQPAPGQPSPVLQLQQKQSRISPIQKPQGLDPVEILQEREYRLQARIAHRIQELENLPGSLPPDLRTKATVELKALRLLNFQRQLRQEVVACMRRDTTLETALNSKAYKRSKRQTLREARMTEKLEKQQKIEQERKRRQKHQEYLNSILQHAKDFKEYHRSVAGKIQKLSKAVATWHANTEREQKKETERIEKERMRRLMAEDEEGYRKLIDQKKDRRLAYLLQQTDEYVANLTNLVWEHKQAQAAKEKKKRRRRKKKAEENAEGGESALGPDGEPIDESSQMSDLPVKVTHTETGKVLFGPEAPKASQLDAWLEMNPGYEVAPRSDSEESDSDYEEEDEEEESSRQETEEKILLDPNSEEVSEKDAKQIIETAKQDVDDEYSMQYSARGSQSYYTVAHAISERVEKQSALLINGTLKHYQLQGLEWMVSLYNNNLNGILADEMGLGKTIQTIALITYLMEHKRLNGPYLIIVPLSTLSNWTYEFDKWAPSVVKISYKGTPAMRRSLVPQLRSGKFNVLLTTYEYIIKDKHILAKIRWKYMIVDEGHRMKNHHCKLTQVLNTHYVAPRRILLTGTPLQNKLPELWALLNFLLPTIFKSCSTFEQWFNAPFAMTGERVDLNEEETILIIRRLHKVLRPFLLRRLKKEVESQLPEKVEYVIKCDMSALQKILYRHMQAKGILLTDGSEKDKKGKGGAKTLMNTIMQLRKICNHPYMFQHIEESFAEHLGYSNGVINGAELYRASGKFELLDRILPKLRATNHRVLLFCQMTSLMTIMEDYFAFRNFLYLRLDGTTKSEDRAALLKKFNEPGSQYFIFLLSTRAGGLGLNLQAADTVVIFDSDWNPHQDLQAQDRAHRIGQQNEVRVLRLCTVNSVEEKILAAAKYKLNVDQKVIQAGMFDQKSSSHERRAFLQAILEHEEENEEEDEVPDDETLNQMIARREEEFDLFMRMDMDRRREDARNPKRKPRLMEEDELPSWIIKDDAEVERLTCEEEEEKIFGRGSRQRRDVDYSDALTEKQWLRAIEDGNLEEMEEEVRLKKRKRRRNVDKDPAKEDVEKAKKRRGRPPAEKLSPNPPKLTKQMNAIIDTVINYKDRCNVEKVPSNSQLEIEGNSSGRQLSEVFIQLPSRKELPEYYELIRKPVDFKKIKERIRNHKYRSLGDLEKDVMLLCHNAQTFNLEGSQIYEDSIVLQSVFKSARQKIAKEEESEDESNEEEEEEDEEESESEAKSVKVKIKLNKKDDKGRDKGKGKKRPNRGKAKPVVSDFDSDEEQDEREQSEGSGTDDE

Question: How did the Dmax (SW1573, % degraded, when tested at the top concentration of between 0.3 and 10 μM, read-out: BRM Dmax (%)) turn out when Cc1ncsc1-c1ccc([C@H](C)NC(=O)[C@@H]2C[C@@H](O)CN2C(=O)[C@H](c2cc(OCCC3CCN(C(=O)[C@H]4C[C@@H](CN5CCC([C@H](C)n6cc(-c7cc(-c8ccccc8O)nnc7N)cn6)CC5)C4)CC3)no2)C(C)C)cc1 [compound 449, (2S,4R)-1-((S)-2-(3-(2-(1-((1R,3R)-3-((4-((S)-1-(4-(3-amino-6-(2-hydroxyphenyl)pyridazin-4-yl)-1H-pyrazol-1-yl)ethyl)piperidin-1-yl)methyl)cyclobutane-1-carbonyl)piperidin-4-yl)ethoxy)isoxazol-5-yl)-3-methylbutanoyl)-4-hydroxy-N-((S)-1-(4-(4-methylthiazol-5-yl)phenyl)ethyl)pyrrolidine-2-carboxamide] was run?
Answer: > 75%

Question: And the DC50 (target protein degradation, read-out: BRM DC50)?
Answer: < 2.5 nM

Question: What does the source list for Cc1ncsc1-c1ccc([C@H](C)NC(=O)[C@@H]2C[C@@H](O)CN2C(=O)[C@H](c2cc(OCCN3CCC4(CC3)CC(OCCN3CCOC5(CCN(c6cc(-c7ccccc7O)nnc6N)CC5)C3)C4)no2)C(C)C)cc1 [compound 164, (2S,4R)-1-((S)-2-(3-(2-(2-(2-(9-(3-amino-6-(2-hydroxyphenyl)pyridazin-4-yl)-1-oxa-4,9-diazaspiro[5.5]undecan-4-yl)ethoxy)-7-azaspiro[3.5]nonan-7-yl)ethoxy)isoxazol-5-yl)-3-methylbutanoyl)-4-hydroxy-N-((S)-1-(4-(4-methylthiazol-5-yl)phenyl)ethyl)pyrrolidine-2-carboxamide]?
Answer: DC50 [1]: 10 to 30 nM; Dmax [2]: 50 to 75%

Question: Which results are given for Cc1ncsc1-c1ccc([C@H](C)NC(=O)[C@@H]2C[C@@H](O)CN2C(=O)[C@@H](c2onc(OCCN3CCC(O[C@H]4C[C@H](Oc5cc(N6C7CCC6CN(c6cc(-c8ccccc8O)nnc6N)C7)ccn5)C4)CC3)c2Cl)C(C)C)cn1 [compound 223, (2S,4R)-1-((2R)-2-(3-(2-(4-((1r,3R)-3-((4-(3-(3-amino-6-(2-hydroxyphenyl)pyridazin-4-yl)-3,8-diazabicyclo[3.2.1]octan-8-yl)pyridin-2-yl)oxy)cyclobutoxy)piperidin-1-yl)ethoxy)-4-chloroisoxazol-5-yl)-3-methylbutanoyl)-4-hydroxy-N-((S)-1-(6-(4-methylthiazol-5-yl)pyridin-3-yl)ethyl)pyrrolidine-2-carboxamide]?
Answer: DC50 [1]: 2.5 to 10 nM; Dmax [2]: > 75%

Question: Cc1ncsc1-c1ccc([C@H](C)NC(=O)[C@@H]2C[C@@H](O)CN2C(=O)[C@@H](c2cc(OCC[C@@H]3CCN(C[C@H]4C[C@H](Oc5cc(N6C7CCC6CN(c6cc(-c8ccccc8O)nnc6N)C7)ccn5)C4)[C@H](C)[C@@H]3C)no2)C(C)C)cc1 (single isomer, unassigned) [compound 584] was tested. Which Dmax [3] did it give?
Answer: > 75%

Question: And the DC50 [4]?
Answer: < 2.5 nM

Question: With COCC[C@H](NC(=O)[C@@H]1C[C@@H](O)CN1C(=O)[C@@H](c1cc(N2CCC(CN3CCC(O[C@H]4C[C@H](Oc5cc(N6C7CCC6CN(c6cc(-c8ccccc8O)nnc6N)C7)ccn5)C4)CC3)CC2)no1)C(C)C)c1ccc(-c2scnc2C)cc1 [compound 670, (2S,4R)-1-((2R)-2-(3-(4-((4-((1r,3r)-3-((4-(3-(3-amino-6-(2-hydroxyphenyl)pyridazin-4-yl)-3,8-diazabicyclo[3.2.1]octan-8-yl)pyridin-2-yl)oxy)cyclobutoxy)piperidin-1-yl)methyl)piperidin-1-yl)isoxazol-5-yl)-3-methylbutanoyl)-4-hydroxy-N-((S)-3-methoxy-1-(4-(4-methylthiazol-5-yl)phenyl)propyl)pyrrolidine-2-carboxamide] as the compound, how does the DC50 [1] read?
Answer: < 2.5 nM

Question: And the Dmax [5]?
Answer: > 75%

Question: What does the source list for Cc1ncsc1-c1ccc([C@H](C)NC(=O)[C@@H]2C[C@@H](O)CN2C(=O)[C@@H](c2cc(OCC#Cc3ccc(O[C@H]4C[C@H](Oc5cc(N6C7CCC6CN(c6cc(-c8ccccc8O)nnc6N)C7)ccn5)C4)cn3)no2)C(C)C)cc1 [compound 70, (2S,4R)-1-((2R)-2-(3-((3-(5-((1r,3R)-3-((4-(3-(3-amino-6-(2-hydroxyphenyl)pyridazin-4-yl)-3,8-diazabicyclo[3.2.1]octan-8-yl)pyridin-2-yl)oxy)cyclobutoxy)pyridin-2-yl)prop-2-yn-1-yl)oxy)isoxazol-5-yl)-3-methylbutanoyl)-4-hydroxy-N-((S)-1-(4-(4-methylthiazol-5-yl)phenyl)ethyl)pyrrolidine-2-carboxamide]?
Answer: DC50 [1]: < 2.5 nM; Dmax [6]: > 75%

Question: How did the DC50 [1] turn out when CC(C)[C@@H](C(=O)N1C[C@H](O)C[C@H]1C(=O)N[C@@H](C)c1ccc(C#N)cc1)c1cc(N2CCC(CN3CCC(O[C@H]4C[C@H](Oc5cc(N6C7CCC6CN(c6cc(-c8ccccc8O)nnc6N)C7)ccn5)C4)CC3)CC2)no1 [compound 640, (2S,4R)-1-((2R)-2-(3-(4-((4-((1r,3r)-3-((4-(3-(3-amino-6-(2-hydroxyphenyl)pyridazin-4-yl)-3,8-diazabicyclo[3.2.1]octan-8-yl)pyridin-2-yl)oxy)cyclobutoxy)piperidin-1-yl)methyl)piperidin-1-yl)isoxazol-5-yl)-3-methylbutanoyl)-N-((S)-1-(4-cyanophenyl)ethyl)-4-hydroxypyrrolidine-2-carboxamide] was run?
Answer: < 2.5 nM

Question: And the Dmax [5]?
Answer: > 75%

Question: With Cc1ncsc1-c1ccc([C@H](C)NC(=O)[C@@H]2C[C@@H](O)CN2C(=O)[C@@H](c2cc(N3CCC(CN4CCC(CCOc5cc(N6C7CCC6CN(c6cc(-c8ccccc8O)nnc6N)C7)ccn5)CC4)CC3)no2)C(C)C)cc1 [compound 604, (2S,4R)-1-((2R)-2-(3-(4-((4-(2-((4-(3-(3-amino-6-(2-hydroxyphenyl)pyridazin-4-yl)-3,8-diazabicyclo[3.2.1]octan-8-yl)pyridin-2-yl)oxy)ethyl)piperidin-1-yl)methyl)piperidin-1-yl)isoxazol-5-yl)-3-methylbutanoyl)-4-hydroxy-N-((S)-1-(4-(4-methylthiazol-5-yl)phenyl)ethyl)pyrrolidine-2-carboxamide] as the compound, how does the Dmax [3] read?
Answer: > 75%

Question: What about the DC50 [4] of the same compound?
Answer: < 2.5 nM

Question: With CC(C)[C@H](C(=O)N1C[C@H](O)C[C@H]1C(=O)N[C@@H](C)c1ccc(-c2c(F)cnn2C)cc1)c1cc(OCCN2CCN(CCOc3cc(N4C5CCC4CN(c4cc(-c6ccccc6O)nnc4N)C5)ccn3)CC2)no1 [compound 409, (2S,4R)-1-((2S)-2-(3-(2-(4-(2-((4-(3-(3-amino-6-(2-hydroxyphenyl)pyridazin-4-yl)-3,8-diazabicyclo[3.2.1]octan-8-yl)pyridin-2-yl)oxy)ethyl)piperazin-1-yl)ethoxy)isoxazol-5-yl)-3-methylbutanoyl)-N-((S)-1-(4-(4-fluoro-1-methyl-1H-pyrazol-5-yl)phenyl)ethyl)-4-hydroxypyrrolidine-2-carboxamide] as the compound, how does the DC50 (degradation of BRM, read-out: BRM DC50) read?
Answer: > 30 nM

Question: For Cc1ncsc1-c1ccc([C@@H](NC(=O)[C@@H]2C[C@@H](O)CN2C(=O)[C@H](c2cc(N3CCC(CN4CCC(O[C@H]5C[C@H](Oc6cc(N7C8CCC7CN(c7cc(-c9ccccc9O)nnc7N)C8)ccn6)C5)CC4)CC3)no2)C(C)C)C(F)F)cc1 [compound 571, (2S,4R)-1-((2S)-2-(3-(4-((4-((1r,3r)-3-((4-(3-(3-amino-6-(2-hydroxyphenyl)pyridazin-4-yl)-3,8-diazabicyclo[3.2.1]octan-8-yl)pyridin-2-yl)oxy)cyclobutoxy)piperidin-1-yl)methyl)piperidin-1-yl)isoxazol-5-yl)-3-methylbutanoyl)-N-((R)-2,2-difluoro-1-(4-(4-methylthiazol-5-yl)phenyl)ethyl)-4-hydroxypyrrolidine-2-carboxamide], which DC50 [4] is on record?
Answer: > 30 nM

Question: Cc1ncsc1-c1ccc([C@@H](NC(=O)[C@@H]2C[C@@H](O)CN2C(=O)[C@@H](c2cc(OCCN3CCN(CCOc4cc(N5C6CCC5CN(c5cc(-c7ccccc7O)nnc5N)C6)ccn4)CC3)no2)C(C)C)C(=O)N(C)c2ccccc2)cc1 [compound 259, (2S,4R)-1-((2R)-2-(3-(2-(4-(2-((4-(3-(3-amino-6-(2-hydroxyphenyl)pyridazin-4-yl)-3,8-diazabicyclo[3.2.1]octan-8-yl)pyridin-2-yl)oxy)ethyl)piperazin-1-yl)ethoxy)isoxazol-5-yl)-3-methylbutanoyl)-4-hydroxy-N-((R)-2-(methyl(phenyl)amino)-1-(4-(4-methylthiazol-5-yl)phenyl)-2-oxoethyl)pyrrolidine-2-carboxamide] was tested. Which DC50 [1] did it give?
Answer: < 2.5 nM

Question: What about the Dmax [2] of the same compound?
Answer: > 75%

Question: For Cc1ncsc1-c1ccc([C@H](C)NC(=O)[C@@H]2C[C@@H](O)CN2C(=O)[C@H](c2cc(N3CCC(CN4CCC(O[C@H]5C[C@H](Oc6cc(/C=C/c7cc(-c8ccccc8O)nnc7N)ccn6)C5)CC4)CC3)no2)C(C)C)cc1 [compound 625, (2S,4R)-1-((S)-2-(3-(4-((4-((1r,3r)-3-((4-((E)-2-(3-amino-6-(2-hydroxyphenyl)pyridazin-4-yl)vinyl)pyridin-2-yl)oxy)cyclobutoxy)piperidin-1-yl)methyl)piperidin-1-yl)isoxazol-5-yl)-3-methylbutanoyl)-4-hydroxy-N-((S)-1-(4-(4-methylthiazol-5-yl)phenyl)ethyl)pyrrolidine-2-carboxamide], which DC50 [4] is on record?
Answer: > 30 nM

Question: Which results are given for Cc1ncsc1-c1ccc(CNC(=O)[C@@H]2C[C@@H](O)CN2C(=O)[C@@H](NC(=O)COCCOCCOCCOCCOc2cc(N3C4CCC3CN(c3cc(-c5ccccc5O)nnc3N)C4)ccn2)C(C)(C)C)cc1 [compound 7, (2S,4R)-1-((2S)-17-((4-(3-(3-amino-6-(2-hydroxyphenyl)pyridazin-4-yl)-3,8-diazabicyclo[3.2.1]octan-8-yl)pyridin-2-yl)oxy)-2-(tert-butyl)-4-oxo-6,9,12,15-tetraoxa-3-azaheptadecanoyl)-4-hydroxy-N-(4-(4-methylthiazol-5-yl)benzyl)pyrrolidine-2-carboxamide]?
Answer: DC50 [1]: 2.5 to 10 nM; Dmax [6]: > 75%
